In the CheMixHub viscosity set:
“And” between values parts separate entries of the source, which are not always exact repeats. Identical values can stand only once. ± gives the uncertainty stated by the source.

Assay: xn = mol fraction of the nth substance listed

C1C[C@@H]2[C@H]3CC[C@H](C3)[C@@H]2C1 + CCCCCCCCCC
viscosity
Conditions | 293.15 K | 298.15 K | 303.15 K | 308.15 K | 313.15 K | 318.15 K | 323.15 K
100 kPa, x1 = 0.1005 | 0.989 ± 0.021 mPa·s and 0.992 ± 0.022 mPa·s | 0.921 ± 0.02 mPa·s | 0.855 ± 0.018 mPa·s and 0.858 ± 0.019 mPa·s | 0.8 ± 0.017 mPa·s and 0.803 ± 0.017 mPa·s | 0.75 ± 0.016 mPa·s and 0.754 ± 0.016 mPa·s | 0.706 ± 0.015 mPa·s and 0.709 ± 0.015 mPa·s | 0.666 ± 0.014 mPa·s and 0.669 ± 0.015 mPa·s
100 kPa, x1 = 0.2006 | 1.074 ± 0.023 mPa·s and 1.083 ± 0.024 mPa·s | 0.993 ± 0.021 mPa·s and 1.002 ± 0.022 mPa·s | 0.925 ± 0.02 mPa·s and 0.931 ± 0.02 mPa·s | 0.863 ± 0.018 mPa·s and 0.869 ± 0.019 mPa·s | 0.808 ± 0.017 mPa·s and 0.813 ± 0.018 mPa·s | 0.759 ± 0.016 mPa·s and 0.764 ± 0.017 mPa·s | 0.715 ± 0.015 mPa·s and 0.72 ± 0.016 mPa·s
100 kPa, x1 = 0.3006 | 1.196 ± 0.026 mPa·s | 1.105 ± 0.024 mPa·s | 1.023 ± 0.022 mPa·s | 0.949 ± 0.021 mPa·s | 0.885 ± 0.019 mPa·s | 0.828 ± 0.018 mPa·s | 0.778 ± 0.017 mPa·s
100 kPa, x1 = 0.3043 | 1.18 ± 0.025 mPa·s | 1.09 ± 0.023 mPa·s | 1.013 ± 0.022 mPa·s | 0.943 ± 0.02 mPa·s | 0.88 ± 0.019 mPa·s | 0.825 ± 0.018 mPa·s | 0.777 ± 0.017 mPa·s
100 kPa, x1 = 0.3995 | 1.297 ± 0.028 mPa·s | 1.195 ± 0.026 mPa·s | 1.105 ± 0.024 mPa·s | 1.027 ± 0.022 mPa·s | 0.958 ± 0.021 mPa·s | 0.897 ± 0.019 mPa·s | 0.841 ± 0.018 mPa·s
100 kPa, x1 = 0.4006 | 1.306 ± 0.029 mPa·s | 1.203 ± 0.026 mPa·s | 1.113 ± 0.024 mPa·s | 1.033 ± 0.023 mPa·s | 0.964 ± 0.021 mPa·s | 0.902 ± 0.02 mPa·s | 0.848 ± 0.019 mPa·s
100 kPa, x1 = 0.4977 | 1.442 ± 0.031 mPa·s | 1.327 ± 0.029 mPa·s | 1.226 ± 0.027 mPa·s | 1.137 ± 0.025 mPa·s | 1.057 ± 0.023 mPa·s | 0.988 ± 0.021 mPa·s | 0.925 ± 0.02 mPa·s
100 kPa, x1 = 0.4997 | 1.45 ± 0.032 mPa·s | 1.333 ± 0.029 mPa·s | 1.232 ± 0.027 mPa·s | 1.142 ± 0.025 mPa·s | 1.063 ± 0.023 mPa·s | 0.99 ± 0.022 mPa·s | 0.927 ± 0.02 mPa·s
100 kPa, x1 = 0.5986 | 1.619 ± 0.035 mPa·s | 1.486 ± 0.033 mPa·s | 1.37 ± 0.03 mPa·s | 1.267 ± 0.028 mPa·s | 1.176 ± 0.026 mPa·s | 1.096 ± 0.024 mPa·s | 1.023 ± 0.022 mPa·s
100 kPa, x1 = 0.6007 | 1.629 ± 0.036 mPa·s | 1.495 ± 0.033 mPa·s | 1.378 ± 0.031 mPa·s | 1.275 ± 0.028 mPa·s | 1.184 ± 0.026 mPa·s | 1.103 ± 0.024 mPa·s | 1.031 ± 0.023 mPa·s
100 kPa, x1 = 0.7 | 1.859 ± 0.041 mPa·s | 1.7 ± 0.038 mPa·s | 1.562 ± 0.035 mPa·s | 1.441 ± 0.032 mPa·s | – | 1.238 ± 0.028 mPa·s | 1.155 ± 0.026 mPa·s
100 kPa, x1 = 0.7001 | 1.849 ± 0.041 mPa·s | 1.692 ± 0.037 mPa·s | 1.555 ± 0.034 mPa·s | 1.435 ± 0.032 mPa·s | – | 1.234 ± 0.027 mPa·s | 1.15 ± 0.025 mPa·s
100 kPa, x1 = 0.7963 | 2.117 ± 0.047 mPa·s | 1.938 ± 0.043 mPa·s | 1.776 ± 0.04 mPa·s | 1.634 ± 0.036 mPa·s | 1.51 ± 0.034 mPa·s | 1.398 ± 0.031 mPa·s | 1.299 ± 0.029 mPa·s
100 kPa, x1 = 0.8002 | 2.153 ± 0.048 mPa·s | 1.963 ± 0.044 mPa·s | 1.798 ± 0.04 mPa·s | 1.655 ± 0.037 mPa·s | – | 1.413 ± 0.032 mPa·s | 1.313 ± 0.029 mPa·s
100 kPa, x1 = 0.8994 | 2.512 ± 0.057 mPa·s | 2.284 ± 0.052 mPa·s | 2.086 ± 0.047 mPa·s | 1.914 ± 0.043 mPa·s | 1.763 ± 0.04 mPa·s | 1.629 ± 0.037 mPa·s | 1.511 ± 0.034 mPa·s
100 kPa, x1 = 0.8995 | 2.525 ± 0.057 mPa·s | 2.294 ± 0.051 mPa·s | 2.093 ± 0.047 mPa·s | 1.918 ± 0.043 mPa·s | 1.765 ± 0.04 mPa·s | 1.631 ± 0.037 mPa·s | 1.513 ± 0.034 mPa·s
101 kPa, x2 = 0.4893 | 1.525 ± 0.039 mPa·s | – | – | – | – | – | –
101 kPa, x2 = 0.6905 | 1.245 ± 0.032 mPa·s | – | – | – | – | – | –

O=S(=O)([O-])[O-].[O]=[V+2] + O
viscosity, 100 kPa
Conditions | 293.15 K | 298.15 K | 303.15 K | 308.15 K | 313.15 K | 318.15 K | 323.15 K
x1 = 0.000898 | 1.035 ± 0.022 mPa·s | 0.9204 ± 0.02 mPa·s | 0.8258 ± 0.018 mPa·s | 0.7466 ± 0.016 mPa·s | 0.6802 ± 0.014 mPa·s | 0.6242 ± 0.013 mPa·s | 0.576 ± 0.012 mPa·s
x1 = 0.00129 | 1.048 ± 0.022 mPa·s | 0.9314 ± 0.02 mPa·s | 0.836 ± 0.018 mPa·s | 0.7558 ± 0.016 mPa·s | 0.688 ± 0.015 mPa·s | 0.6311 ± 0.013 mPa·s | 0.5827 ± 0.012 mPa·s
x1 = 0.00163 | 1.068 ± 0.023 mPa·s | 0.9499 ± 0.02 mPa·s | 0.8519 ± 0.018 mPa·s | 0.7707 ± 0.016 mPa·s | 0.7015 ± 0.015 mPa·s | 0.6439 ± 0.014 mPa·s | 0.5926 ± 0.013 mPa·s
x1 = 0.002247 | 1.089 ± 0.055 mPa·s | 0.9678 ± 0.049 mPa·s | 0.8664 ± 0.044 mPa·s | 0.7814 ± 0.04 mPa·s | – | – | –
x1 = 0.002326 | 1.101 ± 0.023 mPa·s | 0.978 ± 0.021 mPa·s | 0.8762 ± 0.019 mPa·s | 0.7911 ± 0.017 mPa·s | 0.7207 ± 0.015 mPa·s | 0.6594 ± 0.014 mPa·s | 0.6101 ± 0.013 mPa·s
x1 = 0.002883 | 1.132 ± 0.024 mPa·s | 1.005 ± 0.021 mPa·s | 0.8997 ± 0.019 mPa·s | 0.8136 ± 0.017 mPa·s | 0.7379 ± 0.016 mPa·s | 0.6736 ± 0.014 mPa·s | 0.6205 ± 0.013 mPa·s
x1 = 0.003583 | 1.154 ± 0.025 mPa·s | 1.024 ± 0.022 mPa·s | 0.9168 ± 0.019 mPa·s | 0.8267 ± 0.018 mPa·s | 0.7514 ± 0.016 mPa·s | 0.6872 ± 0.015 mPa·s | 0.6348 ± 0.014 mPa·s
x1 = 0.004098 | 1.174 ± 0.025 mPa·s | 1.042 ± 0.022 mPa·s | 0.9321 ± 0.02 mPa·s | 0.8405 ± 0.018 mPa·s | 0.7626 ± 0.016 mPa·s | 0.6972 ± 0.015 mPa·s | 0.6409 ± 0.014 mPa·s
x1 = 0.004417 | 1.19 ± 0.025 mPa·s | – | 0.9437 ± 0.02 mPa·s | 0.8499 ± 0.018 mPa·s | 0.7718 ± 0.016 mPa·s | 0.7049 ± 0.015 mPa·s | 0.6484 ± 0.014 mPa·s
x1 = 0.00448 | 1.189 ± 0.06 mPa·s | – | 0.943 ± 0.048 mPa·s | 0.8499 ± 0.043 mPa·s | – | – | –
x1 = 0.005377 | 1.236 ± 0.026 mPa·s | 1.094 ± 0.023 mPa·s | 0.9762 ± 0.021 mPa·s | 0.8796 ± 0.019 mPa·s | 0.7968 ± 0.017 mPa·s | 0.7274 ± 0.015 mPa·s | 0.6684 ± 0.014 mPa·s
x1 = 0.006709 | 1.297 ± 0.066 mPa·s | 1.148 ± 0.058 mPa·s | 1.024 ± 0.052 mPa·s | – | – | – | –
x1 = 0.00893 | 1.418 ± 0.072 mPa·s | 1.252 ± 0.063 mPa·s | 1.115 ± 0.056 mPa·s | – | – | – | –
x1 = 0.0111 | 1.548 ± 0.078 mPa·s | 1.364 ± 0.069 mPa·s | 1.212 ± 0.061 mPa·s | – | – | – | –
x1 = 0.0133 | 1.696 ± 0.086 mPa·s | 1.491 ± 0.075 mPa·s | 1.322 ± 0.067 mPa·s | – | – | – | –
x1 = 0.0155 | 1.854 ± 0.094 mPa·s | 1.627 ± 0.082 mPa·s | 1.44 ± 0.073 mPa·s | – | – | – | –
x1 = 0.0177 | 2.031 ± 0.1 mPa·s | 1.777 ± 0.09 mPa·s | 1.57 ± 0.079 mPa·s | – | – | – | –
x1 = 0.01986 | 2.226 ± 0.11 mPa·s | 1.943 ± 0.098 mPa·s | 1.711 ± 0.086 mPa·s | – | – | – | –
x1 = 0.02202 | 2.436 ± 0.12 mPa·s | 2.115 ± 0.21 mPa·s and 2.121 ± 0.11 mPa·s | – | – | – | – | –
x1 = 0.02418 | 2.662 ± 0.13 mPa·s | 2.312 ± 0.12 mPa·s | 2.027 ± 0.1 mPa·s | – | – | – | –
x1 = 0.02631 | 2.89 ± 0.15 mPa·s | 2.509 ± 0.13 mPa·s | 2.196 ± 0.11 mPa·s | – | – | – | –
x1 = 0.03893 | – | – | – | – | – | 2.575 ± 0.26 mPa·s | –
